Results from patent US12655139B2, “Isoxazolidines as RIPK1 inhibitors and use thereof” (SANOFI, priority 2020, dated 2026).
Counter-ions that a name gives are not always drawn. Like-named read-outs stand apart in the source and are kept apart here.

Test system: U937 cells
Experiment: Cellular assay in U937 cells on cell death (necroptosis), TNFα/zVAD.fmk
Assay type: cell-based
Conditions: Homo sapiens
Source text: Cellular Assay in U937 Cells to Measure the Activity of RIPK1-Inhibitors on Cell Death (Necroptosis).
Cell death was quantified in 96 well plates by determination of the amount of live cell using a CellTiter 96 AQueous reagent (Promega), a calorimetric method to measure the amount of live cells by reducing tetrazolium compound [3-(4,5-dimethylthiazol-2-yl)-5-(3-carboxymethoxyphenyl)-2-(4-sulfophenyl)-2H-tetrazolium, inner salt; MTS] into formazan. Absorbance of formazan was read at 490 nm. The inhibitory activity of the test compound was quantified in a concentration response curve (CRC) experiment. Compounds were obtained as 10 mM stock solutions and were diluted 1 to 10 volumes with DMSO to yield a 1 mM solution. From this solution 2 μl were diluted with 998 μl growth medium. 100 μl of 2 μM compound solution was further diluted sequentially with a dilution factor of 2.5 by adding 150 μl growth medium. A total of 10 concentrations were tested ranging from 10 μM to 0.26 nM or from 1 μM to 0.07 nM.
U937 cells were cultured in RPMI1640 Glutamax and 10% heat inactivated FBS. 50 μl cell suspension containing 1×10^6 cells/ml supplemented with 50 μM zVAD.fmk (Benzyloxycarbonyl-Val-Ala-Asp (OMe) fluoromethylketone) and 100 ng/ml recombinant human TNFα were dispensed in each well of a 96-well plate. 50 μl of compound dilutions (see above) were added and the cell suspension incubated overnight (18 to 24 hours) at 37° C., 5% CO2 in a humidified atmosphere (95% rH). High (no compound) and low control (no TNFα, zVAD.fmk) were tested with 7 replicates; all compound concentrations were tested in duplicates on each experimental plate.
CellTiter 96 Aqueous reagent was mixed (100 μl PMS (phenazine methosulfate) solution/2 ml MTS (3-(4,5-[…])-5-(3-carboxymethoxyphenyl)-2-(4-sulfophenyl)-2H-tetrazolium, inner salt) solution) and 20 μl were added per well. After 4 hours incubation at 37° C. (5% CO2 95% rH) optical density was measured at 490 nm on a microplate reader (Tecan Infinite M1000).
The % inhibition is expressed as percentage of the maximal inhibition value obtained in the absence of TNFα/zVAD.fmc.

[1] = U-937, Table 2, read-out: U937 IC50
[2] = U-937, Comparator table 5, read-out: U937 IC50 (uM) Mean

| SMILES | IC50 [1] [µM] | IC50 [2] [µM] |
| --- | --- | --- |
| Cn1ccc(C2CCON2C(=O)C2CCN(c3nccc(C(N)=O)n3)CC2)n1 (racemic) [Ex. 002*] | 1.83 |  |
| NC(=O)c1ccnc(N2CCC(C(=O)N3OCCC3c3ccc4nccn4c3)CC2)n1 (racemic) [Ex. 012*] | 7.26 |  |
| NC(=O)c1cncc(C2CCON2C(=O)C2CCN(c3nccc(C(N)=O)n3)CC2)c1 (racemic) [Ex. 029*] | 2.2 |  |
| CNC(=O)c1cncc(C2CCON2C(=O)C2CCN(c3nccc(C(N)=O)n3)CC2)c1 (racemic) [Ex. 040*] | > 10 |  |
| Cc1nnc(C2CCON2C(=O)C2CCN(c3nccc(C(N)=O)n3)CC2)s1 (racemic) [Ex. 089*] | 2.16 |  |
| Cn1ccc(C2CCON2C(=O)C2CCN(c3cc(C#N)ncn3)CC2)n1 (racemic) [Example 006, 6-[4-[3-(1-methylpyrazol-3-yl)isoxazolidine-2-carbonyl]-1-piperidyl]pyrimidine 4-carbonitrile] | 5.6 |  |
| Cn1ccc(C2CCON2C(=O)C2CCN(c3cc(C(N)=O)ncn3)CC2)n1 (racemic) [Example 008, 6-[4-[3-(1-methylpyrazol-3-yl)isoxazolidine-2-carbonyl]-1-piperidyl] pyrimidine-4-carboxamide TFA salt] | 5.22 |  |
| CNC(=O)c1cncc(C2CCON2C(=O)C2CCN(c3cc(C(N)=O)ncn3)CC2)c1 (racemic) [Example 041] | > 10 |  |
| NC(=O)c1ccnc(N2CCC(C(=O)N3OCC[C@H]3c3cc(F)cc(F)c3)CC2)n1 [E, reference compound] |  | 0.002 |
| NC(=O)c1ccnc(N2CCC(C(=O)N3OCC[C@H]3c3cncnc3)CC2)n1 [Ex. 003] | 0.29 |  |
| N#Cc1cncc([C@@H]2CCON2C(=O)C2CCN(c3cc(C#N)ncn3)CC2)c1 [Ex. 005] | 0.115 |  |
| N#Cc1cncc([C@@H]2CCON2C(=O)C2CCN(c3cc(C#N)ccn3)CC2)c1 [Ex. 017] | 0.343 |  |
| CC1(C(=O)N2OCC[C@H]2c2cncc(C#N)c2)CCN(c2ncc(F)c(OCC#N)n2)CC1 [Ex. 018] | 0.0103 |  |
| NC(=O)c1ccnc(N2CCC(C(=O)N3OCCC3c3ccc(O)nc3)CC2)n1 (centres unmarked) [Ex. 022] | > 10 |  |
| CCOC(=O)COc1nc(N2CCC(C(=O)N3OCC[C@H]3c3cncc(C#N)c3)CC2)ncc1F [Ex. 027, Ethyl 2-[2-[4-[(3S)-3-(5-cyano-3-pyridyl)isoxazolidine-2-carbonyl]-1-piperidyl]-5-fluoro-pyrimidin-4-yl]oxyacetate] | 0.528 |  |
| CC(=O)Nc1cncc([C@@H]2CCON2C(=O)C2CCN(c3nccc(C(N)=O)n3)CC2)c1 [Ex. 043] | 2.7 |  |
| NC(=O)c1ccnc(N2CCC(C(=O)N3OCC[C@H]3c3cncc(N4CCCC4=O)c3)CC2)n1 [Ex. 060] | 7.31 |  |
| CC1(C(=O)N2OCC[C@H]2c2cncnc2)CCN(c2ncc(F)c(OCC#N)n2)CC1 [Ex. 062] | 0.0124 |  |
| N#CCOc1nc(N2CCC(C(=O)N3OCC[C@H]3c3cncnc3)CC2)ncc1F [Ex. 063] | 0.0151 |  |
| NC(=O)c1ccnc(N2CCC(C(=O)N3OCC[C@H]3c3cnccn3)CC2)n1 [Ex. 074] | 0.00975 |  |
| CCN1CCC(CNC(=O)c2ccnc(N3CCC(C(=O)N4OCC[C@H]4c4cncc(C#N)c4)CC3)n2)CC1 [Ex. 079] | 1.67 |  |

| SMILES | IC50 [1] [µM] | IC50 [2] [µM] |
| --- | --- | --- |
| Cc1cncc([C@@H]2CCON2C(=O)C2CCN(c3ncc(F)c(C(N)=O)n3)CC2)n1 [Ex. 082] | 0.00325 |  |
| NC(=O)c1nc(N2CCC(C(=O)N3OCC[C@H]3c3ccc(Cl)cn3)CC2)ncc1F [Ex. 084] | 0.0178 |  |
| N#Cc1cncc([C@@H]2CCON2C(=O)C2CCN(c3nccc(C(=O)NC4CNC4)n3)CC2)c1 [Ex. 086, N-(Azetidin-3-yl)-2-[4-[(3S)-3-(5-cyano-3-pyridyl)isoxazolidine-2-carbonyl]-1-piperidyl]pyrimidine-4-carboxamide TFA salt] | 8.68 |  |
| NC(=O)c1cncc([C@@H]2CCON2C(=O)C2CCN(c3ncc(F)c(C(N)=O)n3)CC2)c1 [Ex. 101] | 0.442 |  |
| N#Cc1cncc([C@@H]2CCON2C(=O)C2CCN(c3nccc(C(N)=O)n3)CC2)n1 [Ex. 118] | 0.00761 |  |
| N#Cc1cncc([C@@H]2CCON2C(=O)C2CCN(c3nccc(Br)n3)CC2)c1 [Ex. 161] | 0.02 |  |
| COc1cncc([C@@H]2CCON2C(=O)C2CCN(c3ncc(F)c(C(N)=O)n3)CC2)n1 [Ex. 177] | 0.00586 |  |
| N#Cc1nc([C@@H]2CCON2C(=O)C2CCN(c3nccc(C(N)=O)n3)CC2)cs1 [Ex. 188] | 0.204 |  |
| CC(C)(C)OC(=O)N1CC[C@@H](C(=O)N2OCC[C@H]2c2cncc(F)c2)[C@@H](F)C1 [F, reference compound] |  | > 10 |
| N#Cc1ccc([C@@H]2CCON2C(=O)C2CCN(c3ncc(F)c(C#N)n3)CC2)nc1 [compound 112, 2-[4-[(3S)-3-(5-cyano-2-pyridyl)isoxazolidine-2-carbonyl]-1-piperidyl]-5-fluoro-pyrimidine-4-carbonitrile] | 0.0755 |  |
| COc1nc(N2CCC(C(=O)N3OCC[C@H]3c3ccc(C#N)cn3)CC2)ncc1F [compound 117] | 0.0684 |  |
| N#Cc1cncc([C@@H]2CCON2C(=O)C2CCN(c3ncc(F)c(O)n3)CC2)c1 [compound 125, 5-[(3S)-2-[1-(5-fluoro-4-hydroxy-pyrimidin-2-yl)piperidine-4-carbonyl]isoxazolidin-3-yl]pyridine-3-carbonitrile] | 8.65 |  |
| Cc1ccc([C@@H]2CCON2C(=O)C2CCN(c3cc(C#N)ncn3)CC2)cn1 [compound 128, (S)-6-(4-(3-(6-methylpyridin-3-yl)isoxazolidine-2-carbonyl)piperidin-1-yl)pyrimidine-4-carbonitrile] | 0.224 |  |
| Cc1cncc([C@@H]2CCON2C(=O)C2CCN(c3nccc(C(N)=O)n3)CC2)c1 [compound 132, (S)-2-(4-(3-(5-methylpyridin-3-yl)isoxazolidine-2-carbonyl)piperidin-1-yl)pyrimidine-4-carboxamide] | 0.0319 |  |
| Cc1ccc([C@@H]2CCON2C(=O)C2CCN(c3cc(C(N)=O)ncn3)CC2)cn1 [compound 135, (S)-6-(4-(3-(6-methylpyridin-3-yl)isoxazolidine-2-carbonyl)piperidin-1-yl)pyrimidine-4-carboxamide] | 0.491 |  |
| Cc1ncc([C@@H]2CCON2C(=O)C2CCN(c3nccc(C#N)n3)CC2)cc1F [compound 136, (S)-2-(4-(3-(5-fluoro-6-methylpyridin-3-yl)isoxazolidine-2-carbonyl)piperidin-1-yl)pyrimidine-4-carbonitrile] | 0.0204 |  |
| N#Cc1cncc([C@@H]2CCON2C(=O)C2CCN(c3ccnc(N)n3)CC2)c1 [compound 148, 5-[(3S)-2-[1-(2-aminopyrimidin-4-yl)piperidine-4-carbonyl]isoxazolidin-3-yl]pyridine-3-carbonitrile] | 2.21 |  |
| O=C(C1CCN(c2ncnc(Cl)n2)CC1)N1OCC[C@H]1c1cnccn1 [compound 174, [1-(4-chloro-1,3,5-triazin-2-yl)-4-piperidyl]-[(3S)-3-pyrazin-2-ylisoxazolidin-2-yl]methanone] | 3.03 |  |
| COc1nc(Cl)nc(N2CCC(C(=O)N3OCC[C@H]3c3cnccn3)CC2)n1 [compound 181, [1-(4-chloro-6-methoxy-1,3,5-triazin-2-yl)-4-piperidyl]-[(3S)-3-pyrazin-2-ylisoxazolidin-2-yl]methanone] | 0.0301 |  |
| Cc1ccc([C@@H]2CCON2C(=O)C2CCN(c3ncc(F)c(C(N)=O)n3)CC2)s1 [compound 183, 5-fluoro-2-[4-[(3S)-3-(5-methyl-2-thienyl)isoxazolidine-2-carbonyl]-1-piperidyl]pyrimidine-4-carboxamide] | 0.000675 |  |
